# Data published in patent US3950387A, “Cysteine derivatives” (Recherches Pharmaceutiques et Scientifiques, priority 1972, dated 1976).
# Structures can show the parent of a compound that is named as a salt.
# Legend:
# [1] = Toxicity: maximum tolerated dose in the mouse, oral route; details: in vivo
# [2] = test system: atheromatic deposits in the aorta; test: Effect on atheromatic deposits in the aorta (visual examination, scale 0 to 5) in cholesterol-fed rabbits; type: in vivo, rabbit (male albino Bouscat); details: for Extent of atheromatic deposit: rabbit; for Activity ranking (anti-atheromatic): conclusion over both tests in rabbits
# Source text: (§1) 2. Effect on atheromatic deposits in the aorta and on plasma cholesterol in the rabbit
# (§2) In order to create atheromatic lesions experimentally, male albino Bouscat rabbits having an average weight of 2.5 kg are fed on a Provende UAR rabbit diet plus 1 or 2% of cholesterol.
# (§3) At the end of 11 to 12 weeks, the animals are sacrificed by having their carotid arteries cut after being anaesthetised with Nembutal and the aorta is removed from lowermost point to the iliac fork, cut open longitudinally and spread out upon a cork board. After fixing with formaldehyde and staining with a 2% aqueous solution of acid fuchsin, pearly white atheromatic spots are apparent against the red background which enables the extent of the deposit to be evaluated quantitatively on a scale from 0 to 5 with 0 corresponding to an absence of lesions and 5 to diffuse lipid deposits covering the whole of the endothelium.
# (§4) In a first test, 60 male rabbits each weighing 2.5 kg are fed on the diet detailed below:
# (§5) 5 weeks : diet containing 2% of cholesterol
# (§6) 3 weeks : diet containing 1% of cholesterol
# (§7) From the beginning the animals are divided into 6 batches of 10 animals each which respectively receive, for the whole duration of the diet, the following products for 5 days per week by the digestive route using an oesophagal probe:
# (§8) All the products are administered in suspension in the same volume of gum arabic (5 ml).
# (§9) At the end of 12 weeks, visual examination of the atheromatic lesions in the aorta gave the results shown in Table II, the numerical data giving the average extent of deposit in each batch.
# (§10) In a second test, using the same experimental method, the two following derivatives were studied in the doses indicated below: […]
# plasma cholesterol = test: Plasma cholesterol in cholesterol-fed rabbits (Pearson method, Technicon auto-analyser); type: in vivo, rabbit (male albino Bouscat); details: rabbit
# Protocol: as §1, §2
# Moreover, a check on the plasma cholesterol is carried out at regular intervals during the test using the Pearson method as adopted to the Technicon auto-analyser by Boy, Bonnafe and Mazet (Applicant's own method).
# as §4, §5, §6, §7, §8, §9, §10
# aortic cholesterol = test: Aortic cholesterol in cholesterol-fed rabbits (Folch extraction, Liebermann-Burchard method); type: in vivo, rabbit (male albino Bouscat); details: rabbit
# Source text: as §1, §2, §3
# After the inside layers of the wall of the aorta have been separated, all the lipids are extracted by the method of Folch et at. The amount of cholesterol is then determined using the Liebermann-Burchard method.
# as §4, §5, §6, §7, §8, §9, §10
# [3] = Solubility in the standard solvents; type: physicochemical; details: all the standard solvents
# [4] = first test, 200 mg/kg oral (oesophagal probe), 5 days per week, 12 weeks, scale 0 (no lesions) to 5 (diffuse deposits), batch average, diet only 3.5
# [5] = first test, 200 mg/kg oral (oesophagal probe), 5 days per week, 12 weeks, diet only 1.47
# [6] = first test, 200 mg/kg oral (oesophagal probe), 5 days per week, 12 weeks, diet only 20.43
# [7] = second test, 50 mg/kg, same experimental method, scale 0 to 5, diet only 4
# [8] = second test, 50 mg/kg, same experimental method, diet only 2.5
# [9] = second test, 50 mg/kg, same experimental method, diet only 22.1
SMILES,MTD [1] [mg/kg],"Extent of atheromatic deposit [2, 4]",Plasma cholesterol (plasma cholesterol; [5]) [g/L],Aortic cholesterol (aortic cholesterol; [6]) [mg/kg],Activity ranking (anti-atheromatic) [2],Solubility [3],"Extent of atheromatic deposit [2, 7]",Plasma cholesterol (plasma cholesterol; [8]) [g/L],Aortic cholesterol (aortic cholesterol; [9]) [mg/kg]
"N[C@@H](CSCC=Cc1ccccc1)C(=O)O [LJ 536, L β-(3-phenyl-propen-2-ylthio) α-amino propanoic acid]",4000,2.05,1.2,12.21,,,,,
"CC(=Cc1ccccc1)CCSC[C@H](N)C(=O)O [LJ 540, L β-(4-phenyl-3-methylbuten-3-ylthio) α-aminopropanoic acid]",≥ 10000,2.60,1.29,15.00,,,,,
"C=CCSC[C@H](NC(=O)CC[C@H](N)C(=O)O)C(=O)NCC(=O)O [LJ 545, L γ-glutamyl-S-allylcysteinyl glycine]",≥ 10000,2.70,1.36,14.38,,,,,
"N[C@@H](CSCc1cccnc1)C(=O)O [LJ 546, L β-[(pyridyl-3)methylthio]α-amino propanoic acid]",9000,1.85,0.99,10.72,the most active,,,,
"CC(SC[C@H](N)C(=O)O)c1ccc(Cl)cc1 (stereo partly drawn) [LJ 550, L β-[1-(p-chlorophenyl)ethylthio]α-amino propanoic acid]",4000,2,1.17,11.90,the most active,practically insoluble in all the standard solvents,,,
"CC(C)=CCC/C(C)=C/CSC[C@H](N)C(=O)O [LJ 558, S-geranylcysteine]",8000,,,,,,,,
"C=CCSC[C@H](N)C(=O)OCC [LJ 565, Ethyl L β-(propen-2-ylthio) α-amino propanoate hydrochloride]",1500,,,,the most active,,2.3,2.1,15
"C=CCSC[C@H](N)C(=O)OC(C)C [LJ 566, Isopropyl L β-(propen-2-ylthio) α-aminopropanoate hydrochloride]",1500,,,,the most active,,2.8,2.3,17.3
